# From article PMC7581279 (Journal of medicinal chemistry, 2013)
# Test system: RT-associated DNA polymerase function
# Assay: not given
# Conditions: cited from earlier work
row,SMILES,activity against RT-associated DNA polymerase function
1,"CCOC(=O)C(=O)CC(=O)/C=C/c1cccn1Cc1ccc(F)cc1 [7g, 6-[1-(4-Fluorophenyl)methyl-1H-pyrrol-2-yl]-2,4-dioxo-5-hexenoic Acid Ethyl Ester]",inactive

# Test system: HIV-1 (IIIB) in MT-4 cells
# Assay: not given
# Conditions: HIV-1-induced cytopathic effect in MT-4 cells
row,SMILES,activity in the CPE assay
1,"CCOC(=O)C(=O)CC(=O)/C=C/c1cccn1Cc1ccccc1 [7a, 6-[1-(Phenyl)methyl-1H-pyrrol-2-yl]-2,4-dioxo-5-hexenoic Acid Ethyl Ester]",antiviral
2,"CCOC(=O)C(=O)CC(=O)/C=C/c1cccn1Cc1ccccc1F [7e, 6-[1-(2-Fluorophenyl)methyl-1H-pyrrol-2-yl]-2,4-dioxo-5-hexenoic Acid Ethyl Ester]",antiviral
3,"CCOC(=O)C(=O)CC(=O)/C=C/c1cccn1Cc1cccc(F)c1 [7f, 6-[1-(3-Fluorophenyl)methyl-1H-pyrrol-2-yl]-2,4-dioxo-5-hexenoic Acid Ethyl Ester]",antiviral
4,"CCOC(=O)C(=O)CC(=O)/C=C/c1cccn1Cc1ccc(F)cc1 [7g, 6-[1-(4-Fluorophenyl)methyl-1H-pyrrol-2-yl]-2,4-dioxo-5-hexenoic Acid Ethyl Ester]",antiviral
5,"O=C(/C=C/c1cccn1Cc1ccccc1)CC(=O)C(=O)O [8a, 6-[1-(Phenyl)methyl-1H-pyrrol-2-yl]-2,4-dioxo-5-hexenoic Acid]",antiviral
6,"O=C(/C=C/c1cccn1Cc1ccc(F)cc1)CC(=O)C(=O)O [8g, 6-[1-(4-Fluorophenyl)methyl-1H-pyrrol-2-yl]-2,4-dioxo-5-hexenoic Acid]",antiviral
7,"O=C(/C=C/c1cccn1Cc1ccc(Cl)cc1)CC(=O)C(=O)O [8i, 6-[1-(4-Chlorophenyl)methyl-1H-pyrrol-2-yl]-2,4-dioxo-5-hexenoic Acid]",inactive

# Molecular target: HIV-1 RT-associated RNase H activity (Human immunodeficiency virus type 1 group M subtype B, UniProt P04585)
# Assay: biochemical
# Conditions: not given
row,SMILES,IC50 [µM]
1,"CCOC(=O)C(=O)CC(=O)/C=C/c1cccn1Cc1ccccc1OC [7m, 6-[1-(2-Methoxyphenyl)methyl-1H-pyrrol-2-yl]-2,4-dioxo-5-hexenoic Acid Ethyl Ester]",> 100
2,"CCOC(=O)C(=O)CC(=O)/C=C/c1cccn1Cc1ccccc1OCC [7o, 6-[1-(2-Ethoxyphenyl)methyl-1H-pyrrol-2-yl]-2,4-dioxo-5-hexenoic Acid Ethyl Ester]",> 100

# Molecular target: recombinant HIV-1 IN ST activity (Human immunodeficiency virus type 1 group M subtype B, UniProt P04585)
# Assay: biochemical
# Conditions: not given
row,SMILES,IC50 [µM]
1,"CCOC(=O)C(=O)CC(=O)/C=C/c1cccn1Cc1ccc(C#N)cc1 [7l, 6-[1-(4-Cyanophenyl)methyl-1H-pyrrol-2-yl]-2,4-dioxo-5-hexenoic Acid Ethyl Ester]",> 111
2,"CCOC(=O)C(=O)CC(=O)/C=C/c1cccn1Cc1ccc(Cl)cc1Cl [7w, 6-[1-(2,4-Dichlorophenyl)methyl-1H-pyrrol-2-yl]-2,4-dioxo-5-hexenoic Acid Ethyl Ester]",> 111
